# Reference: article PMC9944328 (Nature Communications, 2023)
# Legend:
# Assay in all cases: Bystander BRET endosomal trafficking (β-arrestin 1-Nluc, FYVE-mVenus), HEK293 (SSTR2 mutants);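 further: Read-out is the BRET ratio between Nluc-fused β-arrestin 1 and the early endosome marker FYVE-mVenus, measured after ligand addition with coelenterazine h as substrate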;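 on Bottom: percent of maximal wild-type response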;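 on Span: percent of maximal wild-type response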;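 on Top: percent of maximal wild-type response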
# SSTR2 mutants [1] = biological target: SSTR2 mutants (Homo sapiens, UniProt P30874, I284A); conditions: for Bottom: Best-fit values
# Protocol: (§1) Wild-type or mutant SSTR2, β-arrestin 1-Nluc and FYVE-mVenus were co-transfected in HEK293 cells at a ratio of 1:0.5:4 on six-well plates. The next day, the transfected cells were plated on white 96-well and incubated overnight, and then cells were incubated with 90 µL HBSS containing 20 mM HEPES and coelenterazine h (5 µM) at room temperature for 40 min. After incubation, ligand was added and the signal was measured using the Synergy H1 microplate reader (BioTek) to determine a BRET ratio.
# SSTR2 mutants [2] = biological target: SSTR2 mutants (Homo sapiens, UniProt P30874, W269A); conditions: for Bottom: Best-fit values
# Protocol: as §1
# SSTR2 mutants [3] = system: SSTR2 mutants
# Protocol: as §1
# SSTR2 mutants [4] = biological target: SSTR2 mutants (Homo sapiens, UniProt P30874, I130A); conditions: HEK293
# Protocol: as §1
# SSTR2 mutants [5] = biological target: SSTR2 mutants (Homo sapiens, UniProt P30874, F265A); conditions: HEK293
# Protocol: as §1
# SSTR2 mutants [6] = biological target: SSTR2 mutants (Homo sapiens, UniProt P30874, R140A); conditions: Best-fit values
# Protocol: as §1
# SSTR2 mutants [7] = biological target: SSTR2 mutants (Homo sapiens, UniProt P30874, K291A); conditions: for Bottom: best-fit
# Protocol: as §1
# SSTR2 mutants [8] = biological target: SSTR2 mutants (Homo sapiens, UniProt P30874, Y312A); conditions: Best-fit values
# Protocol: as §1
# SSTR2 mutants [9] = biological target: SSTR2 mutants (Homo sapiens, UniProt P30874, P220A); conditions: for Bottom: Best-fit values
# Chain of SSTR2 mutants (Homo sapiens, UniProt P30874, P220A) (P30874 whole entry P220A): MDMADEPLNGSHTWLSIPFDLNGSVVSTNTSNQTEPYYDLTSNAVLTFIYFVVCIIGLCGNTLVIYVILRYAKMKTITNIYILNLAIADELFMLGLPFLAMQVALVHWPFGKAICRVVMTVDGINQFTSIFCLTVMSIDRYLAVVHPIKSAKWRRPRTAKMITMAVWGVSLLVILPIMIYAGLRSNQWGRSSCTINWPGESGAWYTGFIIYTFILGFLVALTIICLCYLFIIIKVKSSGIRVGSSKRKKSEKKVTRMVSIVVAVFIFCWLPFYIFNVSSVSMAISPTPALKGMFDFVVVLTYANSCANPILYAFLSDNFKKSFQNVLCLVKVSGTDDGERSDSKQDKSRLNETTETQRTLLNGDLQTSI
# Protocol: as §1
# Chain of SSTR2 mutants (Homo sapiens, UniProt P30874, I284A) (P30874 whole entry I284A): as the sequence (P30874 whole entry P220A) above, with A220P, I284A counted along it
# Chain of SSTR2 mutants (Homo sapiens, UniProt P30874, W269A) (P30874 whole entry W269A): as the sequence (P30874 whole entry P220A) above, with A220P, W269A counted along it
# Chain of SSTR2 mutants (Homo sapiens, UniProt P30874, K291A) (P30874 whole entry K291A): as the sequence (P30874 whole entry P220A) above, with A220P, K291A counted along it
# Chain of SSTR2 mutants (Homo sapiens, UniProt P30874, Y312A) (P30874 whole entry Y312A): as the sequence (P30874 whole entry P220A) above, with A220P, Y312A counted along it
# Chain of SSTR2 mutants (Homo sapiens, UniProt P30874, R140A) (P30874 whole entry R140A): as the sequence (P30874 whole entry P220A) above, with R140A, A220P counted along it
# Chain of SSTR2 mutants (Homo sapiens, UniProt P30874, F265A) (P30874 whole entry F265A): as the sequence (P30874 whole entry P220A) above, with A220P, F265A counted along it
# Chain of SSTR2 mutants (Homo sapiens, UniProt P30874, I130A) (P30874 whole entry I130A): as the sequence (P30874 whole entry P220A) above, with I130A, A220P counted along it
structure (smiles),measurement,setting,value
C[C@@H](O)[C@@H]1NC(=O)[C@H](CCCCN)NC(=O)[C@@H](Cc2c[nH]c3ccccc23)NC(=O)[C@H](Cc2ccccc2)NC(=O)[C@@H](NC(=O)[C@H](N)Cc2ccccc2)CSSC[C@@H](C(=O)N[C@H](CO)[C@@H](C)O)NC1=O [octreotide],Bottom,SSTR2 mutants [1]; I284A-1,1.002
same,Bottom,SSTR2 mutants [1]; I284A-2,9.91
same,Emax,SSTR2 mutants [1]; HEK293,94.8 ± 4.62%
same,Bottom,SSTR2 mutants [2]; W269A-1,-0.7468
same,Bottom,SSTR2 mutants [2]; W269A-2,-3.268
same,Emax,SSTR2 mutants [2]; HEK293,14.5 ± 3.19%
same,LogEC50,"SSTR2 mutants [3]; Best-fit values, I284A-1",-6.559
same,Top,"SSTR2 mutants [3]; Best-fit values, I284A-1",94.85
same,LogEC50,"SSTR2 mutants [3]; Best-fit values, I284A-2",-7.171
same,Top,"SSTR2 mutants [3]; Best-fit values, I284A-2",92.19
same,LogEC50,"SSTR2 mutants [3]; Best-fit values, P220A-1",-6.023
same,Span,"SSTR2 mutants [3]; Best-fit values, P220A-1",31.36
same,Top,"SSTR2 mutants [3]; Best-fit values, P220A-1",20.27
same,LogEC50,"SSTR2 mutants [3]; Best-fit values, P220A-2",-7.589
same,Span,"SSTR2 mutants [3]; Best-fit values, P220A-2",32.52
same,Top,"SSTR2 mutants [3]; Best-fit values, P220A-2",39.01
same,LogEC50,"SSTR2 mutants [3]; Best-fit values, R140A-1",-8.238
same,Span,"SSTR2 mutants [3]; Best-fit values, R140A-1",48.38
same,Top,"SSTR2 mutants [3]; Best-fit values, R140A-1",48.39
same,LogEC50,"SSTR2 mutants [3]; Best-fit values, R140A-2",-8.282
same,Span,"SSTR2 mutants [3]; Best-fit values, R140A-2",47.34
same,Top,"SSTR2 mutants [3]; Best-fit values, R140A-2",46.25
same,EC50,"SSTR2 mutants [3]; Best-fit values, W269A-1",0.642 nM
same,LogEC50,"SSTR2 mutants [3]; Best-fit values, W269A-1",-9.192
same,Span,"SSTR2 mutants [3]; Best-fit values, W269A-1",18.76
same,Top,"SSTR2 mutants [3]; Best-fit values, W269A-1",18.02
same,EC50,"SSTR2 mutants [3]; Best-fit values, W269A-2",0.132 nM
same,LogEC50,"SSTR2 mutants [3]; Best-fit values, W269A-2",-9.88
same,Span,"SSTR2 mutants [3]; Best-fit values, W269A-2",17.57
same,Top,"SSTR2 mutants [3]; Best-fit values, W269A-2",14.3
same,EC50,"SSTR2 mutants [3]; Best-fit values, Y312A-1",10.2 nM
same,LogEC50,"SSTR2 mutants [3]; Best-fit values, Y312A-1",-7.991
same,Span,"SSTR2 mutants [3]; Best-fit values, Y312A-1",45.08
same,Top,"SSTR2 mutants [3]; Best-fit values, Y312A-1",45.64
same,EC50,"SSTR2 mutants [3]; Best-fit values, Y312A-2",10.3 nM
same,LogEC50,"SSTR2 mutants [3]; Best-fit values, Y312A-2",-7.988
same,Span,"SSTR2 mutants [3]; Best-fit values, Y312A-2",40.73
same,Top,"SSTR2 mutants [3]; Best-fit values, Y312A-2",40.06
same,Internalization of microswitch mutants,SSTR2 mutants [3]; alanine substitution of microswitch residues,reduced receptor internalization
same,EC50,"SSTR2 mutants [3]; best-fit, I284A-1, run 1",276 nM
same,Span,"SSTR2 mutants [3]; best-fit, I284A-1, run 1",93.85
same,EC50,"SSTR2 mutants [3]; best-fit, I284A-2, run 2",67.5 nM
same,Span,"SSTR2 mutants [3]; best-fit, I284A-2, run 2",82.28
same,EC50,"SSTR2 mutants [3]; best-fit, K291A-1, run 1",1610 nM
same,LogEC50,"SSTR2 mutants [3]; best-fit, K291A-1, run 1",-5.793
same,Span,"SSTR2 mutants [3]; best-fit, K291A-1, run 1",78.24
same,Top,"SSTR2 mutants [3]; best-fit, K291A-1, run 1",68.05
same,EC50,"SSTR2 mutants [3]; best-fit, K291A-2, run 2",615 nM
same,LogEC50,"SSTR2 mutants [3]; best-fit, K291A-2, run 2",-6.211
same,Span,"SSTR2 mutants [3]; best-fit, K291A-2, run 2",78.94
same,Top,"SSTR2 mutants [3]; best-fit, K291A-2, run 2",80.99
same,Emax,SSTR2 mutants [4],68.2 ± 4.05%
same,Emax,SSTR2 mutants [5],56.1 ± 4.14%
same,Bottom,SSTR2 mutants [6]; R140A-1,0.00472
same,Bottom,SSTR2 mutants [6]; R140A-2,-1.087
same,Emax,SSTR2 mutants [7]; HEK293,68 ± 8.22%
same,Bottom,"SSTR2 mutants [7]; K291A-1, run 1",-10.2
same,Bottom,"SSTR2 mutants [7]; K291A-2, run 2",2.053
same,Bottom,SSTR2 mutants [8]; Y312A-1,0.5637
same,Bottom,SSTR2 mutants [8]; Y312A-2,-0.6682
same,Bottom,SSTR2 mutants [9]; P220A-1,-11.09
same,Bottom,SSTR2 mutants [9]; P220A-2,6.493
same,Emax,SSTR2 mutants [9]; HEK293,20.3 ± 8.01%
